Assay results published in patent publication US20240173432A1, “Compositions and Methods for Treatment of Myotonic Dystrophy Type 1 with CRISPR/SluCas9” (Vertex Pharmaceuticals Incorporated, priority 2021, published 2024).

Legend:
[1] = tested on: 3′ UTR of the human DMPK gene; test: Single-cut screening: indel editing efficiency by Sanger sequencing and ICE analysis in primary DM1 patient myoblasts; type: cell-based; details: vehicle-treated samples; for Indel efficiency: single SluCas9 sgRNA RNP in primary DM1 patient myoblasts, Sanger sequencing and ICE analysis; for indel efficiency (Sanger sequencing and ICE analysis): single-cut, SluCas9 RNP, 72 hrs post nucleofection, wild-type allele
How it was run: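 Indels were estimated by ICE from Sanger chromatograms of PCR amplicons covering the DMPK 3′ UTR wild-type allele, using only vehicle-treated samples; sgRNAs with R2<0.9 are flagged. Samples came from primary DM1 patient myoblasts (2 × 10^5) harvested 72 h after nucleofection with 30 pmol SluCas9 and 90 pmol single sgRNA RNP.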

[2] = tested on: CUG foci in primary DM1 patient myoblasts; test: Single-cut screening: FISH staining of CUG RNA foci; type: cell-based, human; details: single sgRNA, primary DM1 patient myoblasts; for % of CUG foci free nuclei (DNA-PKi): DNA-PKi treated
How it was run: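 CD56-purified primary DM1 patient myoblasts nucleofected with SluCas9:sgRNA RNP (30:90 pmol, single-cut), then DMSO or 3 μM DNA-PK inhibitor for 48 h. At 72 h post-nucleofection, cells fixed and stained for CUG foci with Cy3-PNA(CAG)5 probe (1 ng/μL, 80 °C), co-stained for MBNL1 and Hoechst, imaged by high-content confocal microscopy.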

[3] = tested on: CAG foci in primary DM1 patient myoblasts; test: Single-cut screening: CAG foci staining; type: cell-based, human; details: single sgRNA; for % of CAG foci positive nuclei (DNA-PKi): DNA-PKi treated
How it was run: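 Primary DM1 patient myoblasts were PFA-fixed and hybridized with […] (1 ng/μL, 15 min at 80° C) in 30% formamide/2×SSC, followed by anti-MBNL1 immunostaining and Hoechst counterstain. CAG RNA foci were quantified by high-content confocal imaging after single-cut SuCas9 sgRNA editing.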

| Substance | Indel efficiency [1] [%] | % of CUG foci free nuclei (DNA-PKi) [2] [%] | % of CUG foci free nuclei (Vehicle) [2] [%] | % of CAG foci positive nuclei (DNA-PKi) [3] [%] | % of CAG foci positive nuclei (Vehicle) [3] [%] | indel efficiency (Sanger sequencing and ICE analysis) [1] |
| --- | --- | --- | --- | --- | --- | --- |
| GCTAGGGGGCGGGCCCGGATCA (guide RNA; chemistry not fully specified) [SluU34] | 53 | 63.08 | 19.95 | 1.03 | 0.78 | – |
| TGCACTGAGACCCCGACATTCC (guide RNA; chemistry not fully specified) [SluD79] | 2 | 25.61 | 11.48 | 1.79 | 0.82 | – |
| CCAGCCGGCTCCGCCCGCTTCG (listed as DNA, chemistry not fully specified) [SluD56] | 70 | 31.7 | 13.88 | 2.91 | 1.04 | high editing IN4DEL efficiency |
| GCGCGATCTCTGCCTGCTTACT (guide RNA; chemistry not fully specified) [SluD37] | 25 | 31.69 | 6.89 | 2.15 | 1.76 | – |
| CAGTGCATCCAAAACGTGGATT (guide RNA; chemistry not fully specified) [SluD75] | 17 | 22.6 | 11.9 | 1.9 | 1.56 | – |
| ATCCGGGCCCGCCCCCTAGCgg (guide RNA; as printed in the source, key not given here) [SluU35] | 25 | 55.71 | 14.23 | 1.42 | 0.69 | – |
| TGGAAGACTGAGTGCCCGGGGC (guide RNA; chemistry not fully specified) [SluU14] | 52 | 58.84 | 29.12 | 1.63 | 1.02 | – |
| TCCGAGAGCAGCGCAAGTGAGG (guide RNA; chemistry not fully specified) [SluD51] | 33 | 28.86 | 14.34 | 2.13 | 2.15 | – |
| TTTGCACTTTGCGAACCAACGA (guide RNA; chemistry not fully specified) [SluD29] | 35 | 28.37 | 7.97 | 2.38 | 1.72 | – |
| ACCTCGTCCTCCGACTCGCTGA (guide RNA; chemistry not fully specified) [SluD65] | 36 | 32.37 | 18.5 | 0.92 | 1.33 | – |
| ATAAATATCCAAACCGCCGAAG (guide RNA; chemistry not fully specified) [SluD63] | 6 | 19.22 | 9.09 | 2.95 | 0.85 | – |
| GATGGAGGGCCTTTTATTCGCG (guide RNA; chemistry not fully specified) [SluD98] | 0 | 11.71 | 11.21 | 1.47 | 0.84 | – |
| TGTCTTCGACTCCGGGGCCCCG (listed as DNA, chemistry not fully specified) [SluU06] | 81 | 67.15 | 25.49 | 1.1 | 1.01 | high editing IN4DEL efficiency |
| TGCTTTTGCCAAACCCGCTTTT (guide RNA; chemistry not fully specified) [SluD39] | 39 | 31.63 | 9.15 | 1.68 | 1.95 | – |
| CACCCCCGACCCTCGCGAATAA (guide RNA; chemistry not fully specified) [SluD90] | 2 | 23.81 | 7.35 | 1.27 | 0.86 | – |
| GGGGTCTCAGTGCATCCAAAAC (guide RNA; chemistry not fully specified) [SluD78] | 4 | 27 | 12.61 | 1.36 | 2.31 | – |
| CCAGGCTGAGGCCCTGACGTGG (listed as DNA, chemistry not fully specified) [SluD06] | 55 | 23.09 | 24.51 | 1.35 | 3.12 | high editing IN4DEL efficiency |
| GATAGGTGGGGGTGCGTGGAGG (guide RNA; chemistry not fully specified) [SluD21] | 36 | 32.15 | 9.96 | 1.77 | 1.95 | – |
| AGCGCAAGTGAGGAGGGGGGCG (guide RNA; chemistry not fully specified) [SluD45] | 8 | 32.39 | 7.51 | 1.16 | 1.17 | – |
| ccccggccGCTAGGGGGCGGGC (guide RNA; as printed in the source, key not given here) [SluU39] | 11 | 36.78 | 10.53 | 2.5 | 0.71 | – |
| cccctccctccccggccGCTAG (guide RNA; as printed in the source, key not given here) [SluU46] | 41 | 62.89 | 14.46 | 1.5 | 0.74 | – |
| GAGGGCCTTTTATTCGCGAGGG (guide RNA; chemistry not fully specified) [SluD97] | 11 | 39.95 | 16.07 | 2.01 | 1.19 | – |
